Experimental data reported in US20130184337A1, “SODIUM ASCORBATE STIMULATION OF ELASTOGENESIS” (THE HOSPITAL FOR SICK CHILDREN, priority 2012, published 2013).
Entries after “also recorded” stand apart in the source; their conditions may differ.

Experiments:
[1] = tested on: normal dermal fibroblasts; assay: Elastic fiber deposition (immuno-staining morphometry, [3H]-valine insoluble elastin) in monolayer cultures; type: cell-based, human; settings: for elastogenic effects of 100 μM SA after pre-treatment with the inhibitor (mRNA, tropoelastin, insoluble elastin, elastic fibers): inhibitor pre-incubation then 100 μM SA, probenecid 400 μM
Method: (§1) Cell Cultures—Fibroblasts initially grew out from the explants of these full thickness skin biopsies and were maintained. The primary cultures of fat-derived fibroblasts obtained from Thermogenesis (Rancho Cordova, Calif.) were also tested. In all described experiments, 2-4 passages of both kinds of fibroblasts were used. In experiments aimed at assessing ECM production, cells were initially plated at a concentration of 100,000 cells/dish.
(§2) Immuno-staining—All cultures maintained in the presence and absence of indicated reagents were either fixed in cold 100% methanol at −20° C. (for detection of elastin) or in 4% paraformaldehyde at room temperature (for detection of collagen I). The multiple parallel cultures were then incubated with 10 μg/ml of polyclonal antibody to tropoelastin (Elastin Products, Owensville, Mich.), or polyclonal antibody to collagen type I (Chemicon, Temecula, Calif.). Cultures were then incubated with the respective fluorescein-conjugated goat anti-rabbit, goat anti-mouse, or rabbit anti-goat secondary antibodies. Nuclei were counterstained with propidium iodide (Sigma, Sigma, St. Louis, Mo.). All of the cultures were then examined with a Nikon Eclipse E1000 microscope attached to a cooled CCD camera (QImaging, Retiga EX) and analyzed by the computer-generated morphometric analysis system (Image-Pro Plus software, Media Cybernetics, Silver Springs, Md.) as previously described.
Quantitative Assays of Insoluble Elastin—Fibroblasts were grown to confluency in 35-mm culture dishes (100,000 cells/dish). Next, 2 μCi of [3H]-valine/ml (Amersham Biosciences Ltd. Oakville, Canada), were added to each dish along with or without the indicated treatments. At the end of each experiment, the levels of metabolically labeled NaOH-insoluble elastin present in individual cultures were assayed and normalized per their DNA content.

[2] = biological target: T1, IGF-1 receptor (Homo sapiens, UniProt P08069); assay: IGF-1R phosphorylation (immuno-precipitation, anti-phospho-tyrosine Western blot); type: cell-based; settings: pretreated and maintained with inhibitor, 100 μM SA
T1 construct: immuno-precipitated with antibody to β subunit of IGF-1R and detected by Western blotting with anti-phospho-tyrosine antibody; endogenous in cells; host or cells: cultured dermal fibroblasts
Method: At the end of each experiment cells were submerged in the lysis buffer containing a broad-range phosphatase inhibitor. The polyclonal antibodies recognizing either the β subunits of the IGF-IR or the β subunit of the insulin receptor were immobilized on separate sets of the IgG-bearing magnetic beads (Invitrogen Canada Inc, Burlington, ON) and then incubated for 1 hour with the aliquots of the cell lysates containing 400 μg of protein as described in the manufacturer protocol. The beads bearing the resulting immuno-precipitation products were re-suspended in sample buffer and the released proteins were resolved with SDS-PAGE and subjected to Western blotting with a monoclonal anti-p-Tyr (PY99) antibody from Santa Cruz Biotechnology Inc. (Santa Cruz, Calif.) and then with HRP-conjugated goat anti-mouse secondary antibody.

[3] = tested on: fibroblasts derived from dermal stretch marks; assay: Collagen and elastic fiber deposition in stretch-mark fibroblast cultures; type: cell-based, human; settings: 200 μM, 24 hour-old cultures
Method: Cell Cultures-Fibroblasts initially grew out from the explants of these full thickness skin biopsies and were maintained. The primary cultures of fat-derived fibroblasts obtained from Thermogenesis (Rancho Cordova, Calif.) were also tested. In all described experiments, 2-4 passages of both kinds of fibroblasts were used. In experiments aimed at assessing ECM production, cells were initially plated at a concentration of 100,000 cells/dish. […] Immuno-staining-All cultures maintained in the presence and absence of indicated reagents were either fixed in cold 100% methanol at -20° C. (for detection of elastin) or in 4% paraformaldehyde at room temperature (for detection of collagen I). The multiple parallel cultures were then incubated with 10 μg/ml of polyclonal antibody to tropoelastin (Elastin Products, Owensville, Mich.), or polyclonal antibody to collagen type I (Chemicon, Temecula, Calif.). Cultures were then incubated with the respective fluorescein-conjugated goat anti-rabbit, goat anti-mouse, or rabbit anti-goat secondary antibodies. Nuclei were counterstained with propidium iodide (Sigma, Sigma, St. Louis, Mo.). All of the cultures were then examined with a Nikon Eclipse […] microscope attached to a cooled CCD camera (QImaging, Retiga EX) and analyzed by the computer-generated morphometric analysis system (Image-Pro Plus software, Media Cybernetics, Silver Springs, Md.) as previously described. Quantitative Assays of Insoluble Elastin-Fibroblasts were grown to confluency in 35-mm culture dishes (100,000 cells/dish). Next, 2 μCi of [3H]-valine/ml (Amersham Biosciences Ltd. Oakville, Canada), were added to each dish along with or without the indicated treatments. At the end of each experiment, the levels of metabolically labeled NaOH-insoluble elastin present in individual cultures were assayed and normalized per their DNA content.

[4] = tested on: reactive oxygen species (ROS); assay: Intracellular ROS with CM-H2DCFDA probe (fluorescence microscope, flow cytophotometry); type: cell-based, human
Method: Quantification of Intracellular free radicals-reactive oxygen species (ROS)—To assess the levels of ROS, quadruplicate cultures of normal skin fibroblasts were exposed to 10 μM of ROS-sensitive CM-H2DCFDA fluorescent probe (Molecular Probes, Eugene, Oreg.) for 30 minutes. This probe passively diffuses into the cell interior and only upon oxidation is a fluorescent product released that can be visualized under a fluorescent microscope or captured by flow cytophotometry when excited at 480 nm. Fibroblasts were then maintained for 30 minutes in the presence or absence of 400 μM probenecid, then incubated either for 2 or 24 hours with and without 100 μM AA or 100 μM SA. At the end of these periods the images were captured using a fluorescent microscope under identical parameters of contrast and brightness. The ROS production was also assessed by flow cytophotometry (λ excitation 480 nm; λ emission 520 nm), using FACSCalibur, Beckton Dickinson Instrument.

[5] = tested on: normal dermal fibroblasts; assay: Collagen fiber deposition (immuno-staining of collagen type I, morphometry); type: cell-based, human
Method: as §1, with “cells/dish. Confluent cultures were then maintained either in serum-free medium (DMEM) or in medium supplemented with 5% FBS in the presence of different reagents that were added 1 hour before treatments with SA.” for “cells/dish.”
as §2

[6] = tested on: explants of dermal scars; assay: Organ culture of skin explants (histochemistry, insoluble elastin); type: cell-based, human; settings: 1 mM DMOG alone
Method: Organ culture of skin explants—Fragments of normal skin, stretch-marked skin and dermal scars collected during plastic surgery procedures were cut into multiple 4 mm2 pieces and maintained for 7 days in DMEM medium containing 5% FBS, […] The parallel quadruplicate explants from each experimental group were additionally maintained in the presence 2 μCi of [3H]-valine/ml and then subjected to the assay of insoluble elastin. The parallel explants from each experimental groups were also evaluated after pentachrome Movat's staining which allows for clear marking of elastic fibers. In each experimental group, 50 sections derived from quadruplicate explants were analyzed.

[7] = DMOG added along with 100 μM SA

T1 sequence (P08069 741-1367 limits assumed): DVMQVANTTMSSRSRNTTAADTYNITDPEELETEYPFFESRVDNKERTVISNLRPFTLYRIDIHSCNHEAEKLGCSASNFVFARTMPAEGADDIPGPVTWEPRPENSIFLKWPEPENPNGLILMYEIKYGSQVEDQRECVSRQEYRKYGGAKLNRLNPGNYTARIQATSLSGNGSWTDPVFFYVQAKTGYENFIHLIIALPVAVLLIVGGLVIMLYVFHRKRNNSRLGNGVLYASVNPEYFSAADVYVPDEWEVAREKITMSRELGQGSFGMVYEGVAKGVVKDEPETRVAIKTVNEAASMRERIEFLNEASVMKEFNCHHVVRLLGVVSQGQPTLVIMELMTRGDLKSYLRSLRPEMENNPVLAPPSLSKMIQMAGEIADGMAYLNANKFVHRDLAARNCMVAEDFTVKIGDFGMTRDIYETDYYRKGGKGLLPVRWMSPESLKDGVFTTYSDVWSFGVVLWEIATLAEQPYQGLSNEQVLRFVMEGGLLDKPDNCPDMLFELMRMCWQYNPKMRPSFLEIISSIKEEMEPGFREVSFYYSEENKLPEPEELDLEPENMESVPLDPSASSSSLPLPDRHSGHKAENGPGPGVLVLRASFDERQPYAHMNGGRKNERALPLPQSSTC
T1 sequence (P08069 31-736 partner limits assumed): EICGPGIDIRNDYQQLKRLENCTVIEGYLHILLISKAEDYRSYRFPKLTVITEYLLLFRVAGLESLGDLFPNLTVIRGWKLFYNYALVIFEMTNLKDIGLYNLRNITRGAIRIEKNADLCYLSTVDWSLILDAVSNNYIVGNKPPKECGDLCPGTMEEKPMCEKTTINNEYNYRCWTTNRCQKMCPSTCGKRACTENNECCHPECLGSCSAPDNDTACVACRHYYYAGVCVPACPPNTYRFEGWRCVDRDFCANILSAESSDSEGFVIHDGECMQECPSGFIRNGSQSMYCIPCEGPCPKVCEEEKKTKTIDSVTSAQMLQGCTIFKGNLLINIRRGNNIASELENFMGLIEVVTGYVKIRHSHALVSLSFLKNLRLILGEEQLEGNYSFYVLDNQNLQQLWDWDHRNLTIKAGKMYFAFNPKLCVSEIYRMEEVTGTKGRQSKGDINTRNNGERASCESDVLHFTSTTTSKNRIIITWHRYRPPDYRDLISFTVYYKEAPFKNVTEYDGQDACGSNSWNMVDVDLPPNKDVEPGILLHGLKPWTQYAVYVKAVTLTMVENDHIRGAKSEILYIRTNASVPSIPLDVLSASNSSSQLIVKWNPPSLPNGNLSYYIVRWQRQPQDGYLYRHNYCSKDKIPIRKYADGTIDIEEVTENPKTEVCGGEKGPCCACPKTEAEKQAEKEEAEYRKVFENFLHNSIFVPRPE

## COc1ccc(CNc2nc(N(CCO)CCO)nc3c2ncn3C(C)C)cc1 [CVT313, reference compound]
[1]; 5% FBS
  elastogenic effects of 100 μM SA after pre-treatment with the inhibitor (mRNA, tropoelastin, insoluble elastin, elastic fibers): eliminated elastogenic effects of 100 μM SA

## COc1cc([C@@H]2c3cc4c(cc3[C@H](O)[C@H]3COC(=O)[C@@H]23)OCO4)cc(OC)c1OC [PPP, reference compound]
[2]
  SA-induced enhancement of IGF-1R phosphorylation in inhibitor-pretreated cultures: eliminated

## IGF-1: human IGF-I from Sigma-Aldrich, elastogenic stimulator
[1]; 50 ng/ml exogenous IGF-1, 24-hour treatment, 5% FBS
  elastogenic effects: strong elastogenic effects

## O=C1O[C@H]([C@@H](O)CO)C(O)=C1O [AA, L-ascorbic acid]
[3]
  production of elastic fibers / elastogenesis: selective inhibition of new elastogenesis
[4]; 100 μM, 2 hours
  levels of intracellular ROS: did not display any decrease in ROS contents
[5]; 100 μM, 24-hour-old cultures, 5% FBS
  deposition of immuno-detected collagen fibers: stimulated collagen deposition

## TGF-[…]1: elastogenic stimulator (TGF-β1, Greek letter lost)
[1]; 1 ng/ml TGF-[…]1
  elastogenesis: increase in elastogenesis

## CC(C)(C)n1nc(-c2ccc(Cl)cc2)c2c(N)ncnc21 [PP2, reference compound]
[2]
  SA-induced enhancement of IGF-1R phosphorylation in inhibitor-pretreated cultures: eliminated
[1]; 5% FBS
  elastogenic effects of 100 μM SA after pre-treatment with the inhibitor (mRNA, tropoelastin, insoluble elastin, elastic fibers): did not trigger elastogenic effects; also recorded: abolish all elastogenic effects

## COC(=O)CNC(=O)C(=O)OC [DMOG, reference compound]
[6]
  elastic fibers in ECM: did not revealed any elastic fibers
[1]; [7]
  SA-enhanced production of elastic fibers: did not interfere with the enhanced production of elastic fibers; also recorded: does not diminish the elastogenic effect of SA
[5]; [7]
  deposition of collagen fibers: inhibits the deposition of collagen fibers

## CCCN(CCC)S(=O)(=O)c1ccc(C(=O)O)cc1 [probenecid, Probenecid, reference compound]
[4]; probenecid pre-incubation, then 100 μM SA for 2 hours
  SA-induced decrease of ROS after probenecid pre-incubation: could not be observed
[1]; 100-400 μM probenecid alone, 24 hours, versus untreated control
  basic deposition of elastic fibers: did not demonstrate any decrease in their basic deposition of elastic fibers
[1]; 5% FBS
  elastogenic effects of 100 μM SA after pre-treatment with the inhibitor (mRNA, tropoelastin, insoluble elastin, elastic fibers): eliminated the elastogenetic effects of 100 μM SA; also recorded: averts the induction of elastogenic effects
